# How the values were obtained:
# [1] = test system: Chronic Constriction Injury (CCI) rat model of neuropathic pain; assay: CCI-induced dynamic allodynia (cotton bud, PWL); type: in vivo
# Procedure: (§1) Male Sprague Dawley rats weighing 150-400 g obtained from Charles River (Manston, Kent, UK.) were housed in groups of 3. All animals were kept under a 12 h light/dark cycle (lights on at 07 h 00 min) with food and water ad libitum. All experiments were carried out by an observer blind to the treatments and in accordance with the Home Office Animals (Scientific Procedures) Act 1986.
# The CCI of sciatic nerve was performed as previously described by Bennett and Xie (Bennett G J, Xie Y K. A peripheral mononeuropathy in rat that produces disorders of pain sensation like those seen in man. Pain:33:87-107, 1988). Animals were anaesthetised with a 2% isofluorane/O2 mixture. The right hind thigh was shaved and swabbed with 1% iodine. Animals were then transferred to a homeothermic blanket for the duration of the procedure and anaesthesia maintained during surgery via a nose cone. The skin was cut along the line of the thighbone. The common sciatic nerve was exposed at the middle of the thigh by blunt dissection through biceps femoris. About 7 mm of nerve was freed proximal to the sciatic trifurcation, by inserting forceps under the nerve and the nerve gently lifted out of the thigh. Suture was pulled under the nerve using forceps and tied in a simple knot until slight resistance was felt and then double knotted. The procedure was repeated until 4 ligatures (4-0 silk) were tied loosely around the nerve with approx 1 mm spacing. The incision was closed in layers.
# Dynamic allodynia was assessed by lightly stroking the plantar surface of the hind paw with a cotton bud. To avoid recording general motor activity, care was taken to perform this procedure in fully habituated rats that were not active. At least two measurements were taken at each time point, the mean of which represented the paw withdrawal latency (PWL). […] A pain withdrawal response was often accompanied with repeated flinching or licking of the paw. Dynamic allodynia was considered to be present if animals responded to the cotton stimulus within 8 sec of commencing stroking (Field et al, 1999).
# (§2) All the experiments were conducted blind. Static allodynia was expressed as median [LQ; UQ] and analysed by Mann Whitney U test. Dynamic allodynia and thermal hyperalgesia were expressed as arithmetic mean±SEM and analysed by ANOVA.
# [2] = test system: Streptozocin (STZ)-induced diabetes neuropathy in the rat; assay: STZ-induced static allodynia (von Frey hairs, PWT); type: in vivo
# Procedure: as §1
# Diabetes was induced by a single intraperitoneal injection of streptozotocin (50 mg/kg) freshly dissolved in 0.9% sterile saline. Streptozotocin injection induces a reproducible mechanical allodynia within 3 weeks, lasting for at least 7 weeks (Chen and Pan, (Chen S R and Pan H L. Hypersensitivity of Spinothalamic Tract Neurons Associated With Diabetic Neuropathic Pain in Rats. J Neurophysiol 87: 2726-2733, 2002).
# Animals were habituated to wire bottom test cages prior to the assessment of allodynia. Static allodynia was evaluated by application of von Frey hairs (Stoelting, Wood Dale, Ill., USA.) in ascending order of force (0.6, 1, 1.4, 2, 4, 6, 8, 10, 15 and 26 grams) to the plantar surface of hind paws. Each von Frey hair was applied to the paw for a maximum of 6 sec, or until a withdrawal response occurred. Once a withdrawal response to a von Frey hair was established, the paw was re-tested, starting with the filament below the one that produced a withdrawal, and subsequently with the remaining filaments in descending force sequence until no withdrawal occurred. The highest force of 26 g lifted the paw as well as eliciting a response, thus represented the cut off point. Each animal had both hind paws tested in this manner. The lowest amount of force required to elicit a response was recorded as paw withdrawal threshold (PWT) in grams. Static allodynia was defined as present if animals responded to a stimulus of, or less than, 4 g, which is innocuous in naive rats (Field M J, Bramwell S, Hughes J, Singh L. Detection of static and dynamic components of mechanical allodynia in rat models of neuropathic pain: are they signalled by distinct primary sensory neurones? Pain, 1999; 83:303-11).
# as §2
# [3] = test system: Carrageenan-induced thermal hyperalgesia (CITH) in the rat; assay: Carrageenan-induced thermal hyperalgesia (CITH), rat plantar test; type: in vivo; details: 25 mg/kg PO
# Procedure: as §1
# Thermal hyperalgesia was assessed using the rat plantar test (Ugo Basile, Comerio, Italy), according to a method modified by Hargreaves et al. (1988). Briefly, rats were habituated to the apparatus that consisted of three individual Perspex boxes on a glass table. A mobile radiant heat source was located under the table and focused onto the desired paw. Paw withdrawal latencies (PWLs) were recorded three times for both hind paws of each animal, the mean of which represented baseline for left and right hind paws. The apparatus was calibrated to give a PWL of approximately 10 s in naïve rats. To prevent tissue damage of the plantar zone, a 22.5 sec cut-off was observed. Lambda carrageenan was injected intraplantarly (100 μl, 20 mg/ml) the right hind paw and baseline recordings of PWT were taken 2 hr post administration.
# as §2
# [4] = biological target: T1, CRTH2 receptor (Rattus norvegicus, UniProt Q6XKD3); assay: IC50 at rat CRTH2 receptor (rIC50)
# T1 sequence (Q6XKD3 1-403): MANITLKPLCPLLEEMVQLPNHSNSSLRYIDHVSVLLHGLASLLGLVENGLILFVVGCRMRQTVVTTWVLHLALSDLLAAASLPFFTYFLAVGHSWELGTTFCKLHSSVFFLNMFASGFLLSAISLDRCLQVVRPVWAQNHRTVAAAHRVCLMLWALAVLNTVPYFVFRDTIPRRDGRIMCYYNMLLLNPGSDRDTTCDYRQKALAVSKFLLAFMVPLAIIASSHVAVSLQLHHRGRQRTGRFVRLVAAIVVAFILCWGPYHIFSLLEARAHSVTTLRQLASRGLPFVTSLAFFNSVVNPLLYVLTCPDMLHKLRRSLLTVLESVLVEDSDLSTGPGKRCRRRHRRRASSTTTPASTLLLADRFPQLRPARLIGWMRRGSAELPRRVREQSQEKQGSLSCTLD
smiles,measurement,setting,value
"CC(=O)N(C1CC1)C1CC(C)N(C(=O)c2cccnc2)c2ccccc21 (stereo not drawn) [N-cyclopropyl-N-[2-methyl-1-(pyridine-3-carbonyl)-1,2,3,4-tetrahydro-quinolin-4-yl]-acetamide]","time of peak effect, dynamic allodynia","[1]; 25 mg/kg PO (MED), post administration",1 h
same,effect on maintenance of CCI-induced dynamic allodynia,"[1]; 12.5, 25 and 50 mg/kg PO, from 14 days post surgery",reversed the maintenance of CCI-induced static and dynamic allodynia in a dose dependent manner
same,"MED, dynamic allodynia",[1]; PO,25 mg/kg
same,dynamic allodynia effect relative to gabapentin,[1]; highest dose (50 mg/kg PO) vs gabapentin 100 mg/kg PO,less potent but significantly different from vehicle treated CCI rats
same,dynamic allodynia paw withdrawal latency (mean±SEM),"[1]; highest dose (50 mg/kg PO), 2 hrs post administration, vehicle 3.5±0.7",11.8±1.0
same,"onset of anti-allodynic effect, dynamic allodynia","[1]; highest dose (50 mg/kg PO), post dose, p<0.01 vs vehicle",30 min
same,"duration of biologically relevant effect, STZ static allodynia",[2]; 25 mg/kg PO,up to 2 hr
same,"time of peak effect, STZ static allodynia","[2]; 25 mg/kg PO, post compound dose",1 h
same,effect on maintenance of STZ-induced static allodynia,"[2]; compound 25 mg/kg PO, gabapentin 100 mg/kg PO (positive control)",reversed
same,effect in the contralateral paw,[3],no effect
same,effect on maintenance of thermal hyperalgesia (ipsilateral paw),[3],completely reversed
same,paw withdrawal latency at peak effect (mean±SEM),"[3]; 2 h post administration, ipsilateral paw, vehicle 3.9±0.2",10.1±0.6
same,"time of peak effect, thermal hyperalgesia",[3]; post administration,2 h
same,duration of anti-hyperalgesic effect,[3]; post compound administration,5 h
same,IC50,[4],45 nM

# — patent US20090170897A1, “Method of Treating Neuropathic Pain” (Pfizer, Inc., priority 2004, published 2009)
